# According to patent US10251894B2, “Anticonvulsant activity of steroids” (The Regents of the University of California, priority 2012, dated 2019):
# What was measured:
# [1] = tested on: PTZ (80 mg/kg, i.p.) seizures; experiment: Pentylenetetrazol (PTZ) seizure test; format: in vivo, mouse; conditions: mice
# Method: (§1) The mouse 6 Hz and pentylenetetrazol seizure models were used. Solutions of 5α,3α-P were made in 6% (0.5 and 1.5 mg/ml) sulfobutylether-β-cyclodextrin sodium salt (Captisol®) in 0.9% saline. The solutions were injected i.v. or i.m. (1, 2 and 30 min or 2 and 30 min, respectively) prior to administration of the 6 Hz electrical stimulus or PTZ (80 mg/kg, i.p.). […] Anticonvulsant activity was assessed by the delay in onset of seizure signs. Allopregnanolone plasma levels in rats were determined by LC-MS.
# (§2) Animals. Male NIH Swiss mice (22-30 g) served as subjects, and all procedures used in these studies were conducted in accordance with the University of California, Davis, Institutional Animal Care and Use Committee the Animal Care and Use policies in strict compliance with the Guide for the Care and Use of Laboratory Animals of the National Research Council (National Academy Press, Washington, D.C.; on the internet at nap.edu/readingroom/books/labrats/).
# (§3) Test Substances and Drug Administration. Allopregnanolone (3α-hydroxy-5α-pregnan-20-one; 5α,3α-P) was synthesized by a SAFC Pharma Inc, Madison, Wis., USA and Captisol (sulfobutylether-beta-cyclodextrin sodium salt) was provided by Ligand Pharmaceuticals, Inc. La Jolla, Calif., USA. Solutions of 5α,3α-P were made in 6% (0.5 and 1.5 mg/ml) or 24% ([…]) sulfobutylether-β-cyclodextrin sodium salt (Captisol®) in 0.9% saline. The volumes used for all injections were 10-20 ml/kg of body weight. In order to establish time courses for protection by 5α,3α-P in the 6-Hz electrical-stimulation (32 mA, 3 s) model, 5α,3α-P (0.5-6 mg/kg) was administered intravenously (i.v.), intramuscularly (i.m.), subcutaneously (s.c.) or orally (p.o.) before electrical stimulation. In the PTZ seizure test, 5α,3α-P or vehicle were administered i.v. or i.m. 1, 2 or 30 min before PTZ.
# The time of onset of myoclonic jerks, clonus and tonic extension was recorded.
# Data Analysis. Results are expressed as mean±S.E.M.; the significance of the difference in the responses of treatment groups with respect to control is based on one-way analysis of variance (ANOVA) followed by specific post hoc comparisons using Dunnett's test. Differences were considered statistically significant when the probability of error was less than 0.05 (p<0.05).
# [2] = tested on: 6 Hz electrical stimulus seizures; experiment: 6-Hz seizure test (6-Hz electrical-stimulation, 32 mA, 3 s, model); format: in vivo, mouse; conditions: mice
# Method: as §1, §2, §3
# 6-Hz Seizure Test (Kaminski, et al., Epilepsia (2004) 45:1-4): 3-s corneal stimulation (200-μs duration, 32-mA monopolar rectangular pulses at 6 Hz) was delivered by a constant-current device (ECT Unit 5780; Ugo Basile, Comerio, Italy). […] The experimental end point was protection against the seizure: an animal was considered to be protected if it resumed its normal exploratory behavior within 10 s of stimulation.
# [3] = Plasma allopregnanolone after single i.v. injection (LC-MS); format: in vivo, rat; conditions: rats
# Method: FIG. 10 illustrates a Time—concentration profile for plasma allopregnanolone (5α,3α-P) after single i.v. injection in rats. Rats bearing indwelling jugular catheters received single i.v. injection of 5α,3α-P or vehicle and serial blood samples were withdrawn at 1, 2, 10,15, 30, 60 and 120 min after injection. Plasma was assayed for 5α,3α-P by LC-MS. Each point represents at least 4 animals.
# as §1
# Surgery and Blood Collection. Male rats were implanted with indwelling jugular catheters as described (Baumann, et al., J Neurosci. (1998) 18: 9069-77). Animals were allowed to recover for at least one week. Experiments were carried out while the animal resided in its home cage. Rats received i.v. injection of vehicle or 5α,3α-P and serial blood samples were withdrawn into chilled tubes at 1, 2, 10,15, 30, 60 and 120 min after i.v. injection. 5α,3α-P and D4-5α,3α-P (internal standard) were extracted with SPE method from rat's plasma. The extracted 5α,3α-P and D4-5α,3α-P were quantified with ultra-performance liquid chromatography (UPLC)/Atmospheric-pressure chemical ionization (APCI)/tandem mass spectrometry (MS/MS).
# [4] = 0.5 mg/kg i.v. 1 min before PTZ
# [5] = i.v. bolus, 0.5 and 1.0 mg/kg pooled
smiles,measurement,setting,value
"CC(=O)[C@H]1CC[C@H]2[C@@H]3CC[C@H]4C[C@H](O)CC[C@]4(C)[C@H]3CC[C@]12C [5α,3α-P, 3α-hydroxy-5α-pregnan-20-one]",delay of seizure onset in the PTZ model,"[1]; 0.1 mg/kg i.v., all pretreatment times (1, 2 and 30 min)",failed to significantly delay seizure onset
same,animals protected from tonic seizures,[1]; 0.25 mg/kg i.m. 2 min before PTZ,0%
same,animals protected from tonic seizures,[1]; 0.5 mg/kg i.m. 2 min before PTZ,50%
same,animals in which tonic seizures and mortality were prevented,[1]; [4],62.5%
same,delay for myoclonic jerks and clonic seizures,[1]; [4],marked delay
same,animals in which tonic seizures were prevented,[1]; 0.5 mg/kg i.v. 2 min before PTZ,25%
same,animals protected from tonic seizures,[1]; 1.5 mg/kg i.m. 2 min before PTZ,100%
same,protection against tonic seizures,[1]; 1.5 mg/kg i.m. 30 min before PTZ,significant protection
same,prevention of tonic seizures and mortality,[1]; 1.5 mg/kg i.v. 1 and 2 min before PTZ,completely prevented
same,protection against tonic seizures,[1]; 1.5 mg/kg i.v. 30 min before PTZ,inactive
same,duration of protective activity in the 6 Hz test,[2]; i.m. 3 mg/kg,< 2 h
same,onset of protective activity in the 6 Hz test,[2]; i.m. 3 mg/kg,≤ 2 min
same,protective activity in the 6 Hz test at 30 min,"[2]; i.v. 1.5 mg/kg, 30 min after infusion",inactive
same,time after injection with protective activity in the 6 Hz test,[2]; i.v. infusion 1.5 mg/kg,1 to 15 min
same,bioavailability after oral administration,"[2]; p.o. in the 6-Hz model, inferred from time course",Low bioavailability
same,mean peak plasma level (2 min),[3]; i.v. bolus 0.5 mg/kg,337 ng/mL
same,mean peak plasma level (2 min),[3]; i.v. bolus 1.0 mg/kg,746 ng/mL
same,"pooled mean halftime, first component",[3]; [5],2 min
same,"pooled mean halftime, second component",[3]; [5],22 min
